Reference: PubChem BioAssay (NCI)
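Growth conditions: 96-well plates. Treatment: test compound, 48 hours, 5 concentrations. Analysis: linear interpolation between bracketing concentrations; unreached endpoints set to highest concentration. TGI: total growth inhibition.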

Tests used:
Assay in all cases: inhibition of tumour cell growth, NCI panel, 48 h
CCRF-CEM leukemia = tested on: CCRF-CEM leukemia
SR leukemia = tested on: SR leukemia
NCI-H460 lung = tested on: NCI-H460 lung
OVCAR-5 ovarian = tested on: OVCAR-5 ovarian
RPMI-8226 leukemia = tested on: RPMI-8226 leukemia
SNB-75 CNS = tested on: SNB-75 CNS
MCF7 breast = tested on: MCF7 breast
SK-MEL-2 melanoma = tested on: SK-MEL-2 melanoma
MDA-N = tested on: MDA-N
ACHN renal = tested on: ACHN renal
OVCAR-3 ovarian = tested on: OVCAR-3 ovarian
OVCAR-4 ovarian = tested on: OVCAR-4 ovarian
CAKI-1 renal = tested on: CAKI-1 renal
BT-549 breast = tested on: BT-549 breast
MALME-3M melanoma = tested on: MALME-3M melanoma
OVCAR-8 ovarian = tested on: OVCAR-8 ovarian
SNB-19 CNS = tested on: SNB-19 CNS
SK-MEL-28 melanoma = tested on: SK-MEL-28 melanoma
SK-MEL-5 melanoma = tested on: SK-MEL-5 melanoma
IGROV1 ovarian = tested on: IGROV1 ovarian
EKVX NSCLC = tested on: EKVX NSCLC
MDA-MB-435 = tested on: MDA-MB-435
LOX IMVI melanoma = tested on: LOX IMVI melanoma
786-0 renal = tested on: 786-0 renal
UACC-257 melanoma = tested on: UACC-257 melanoma
UACC-62 melanoma = tested on: UACC-62 melanoma
KM12 colon = tested on: KM12 colon
DU-145 prostate = tested on: DU-145 prostate
MDA-MB-231 breast = tested on: MDA-MB-231 breast
K-562 leukemia = tested on: K-562 leukemia
SF-268 CNS = tested on: SF-268 CNS
A549 NSCLC = tested on: A549 NSCLC
A498 renal = tested on: A498 renal
PC-3 prostate = tested on: PC-3 prostate
HCC-2998 colon = tested on: HCC-2998 colon
T-47D breast = tested on: T-47D breast
NCI/ADR-RES ovarian = tested on: NCI/ADR-RES ovarian
HS 578T breast = tested on: HS 578T breast
HT29 colon = tested on: HT29 colon
HCT-15 colon = tested on: HCT-15 colon
RXF 393 renal = tested on: RXF 393 renal
SF-295 CNS = tested on: SF-295 CNS
UO-31 renal = tested on: UO-31 renal
MOLT-4 leukemia = tested on: MOLT-4 leukemia
NCI-H23 lung = tested on: NCI-H23 lung
SF-539 CNS = tested on: SF-539 CNS
U251 CNS = tested on: U251 CNS
M14 melanoma = tested on: M14 melanoma
HCT-116 colon = tested on: HCT-116 colon
HOP-92 NSCLC = tested on: HOP-92 NSCLC
HL-60(TB) leukemia = tested on: HL-60(TB) leukemia
SK-OV-3 ovarian = tested on: SK-OV-3 ovarian
SW-620 colon = tested on: SW-620 colon
TK-10 renal = tested on: TK-10 renal
COLO 205 colon = tested on: COLO 205 colon
NCI-H226 lung = tested on: NCI-H226 lung
HOP-62 NSCLC = tested on: HOP-62 NSCLC
SN12C renal = tested on: SN12C renal
NCI-H522 lung = tested on: NCI-H522 lung

Measured: TGI

O=C(N=Nc1c(O)[nH]c2ccccc12)C(O)(c1ccccc1)c1ccccc1
42.1 µM: A549 NSCLC
28.9 µM: BT-549 breast
31.4 µM: LOX IMVI melanoma
36 µM: A498 renal
38.5 µM: PC-3 prostate
29.7 µM: SK-MEL-5 melanoma
68.8 µM: T-47D breast
33.9 µM: SK-MEL-28 melanoma
46.5 µM: MALME-3M melanoma
43.8 µM: NCI-H226 lung
33.3 µM: COLO 205 colon
27.9 µM: HCC-2998 colon
56.4 µM: MCF7 breast
29.6 µM: SF-539 CNS
29.8 µM: UO-31 renal
66.6 µM: HS 578T breast
35.4 µM: KM12 colon
69 µM: HL-60(TB) leukemia
56.3 µM: UACC-257 melanoma
37.5 µM: HCT-116 colon
73.9 µM: DU-145 prostate
87.9 µM: SF-268 CNS
99.3 µM: TK-10 renal
36.3 µM: OVCAR-3 ovarian | SF-295 CNS
50.9 µM: OVCAR-4 ovarian
30.1 µM: UACC-62 melanoma | NCI-H23 lung
35.5 µM: MDA-MB-231 breast
67.3 µM: OVCAR-8 ovarian
56.6 µM: SK-OV-3 ovarian
34.2 µM: SNB-19 CNS
62 µM: RPMI-8226 leukemia
31.8 µM: SK-MEL-2 melanoma | MDA-MB-435
39.6 µM: IGROV1 ovarian
89.8 µM: K-562 leukemia
84.6 µM: NCI/ADR-RES ovarian
28.3 µM: RXF 393 renal
43.6 µM: SNB-75 CNS
34.7 µM: NCI-H460 lung
34 µM: MDA-N | SW-620 colon
37.2 µM: HT29 colon
30.4 µM: M14 melanoma
79.4 µM: SR leukemia
35.3 µM: U251 CNS
49.7 µM: HOP-92 NSCLC
31.5 µM: OVCAR-5 ovarian
30.3 µM: HCT-15 colon
not listed: HOP-62 NSCLC | SN12C renal | NCI-H522 lung
> 100 µM: all other assays above

Nc1nc(Cl)nc(NCc2ccccc2)n1
not listed: UO-31 renal | NCI-H522 lung
> 100 µM: all other assays above

CC(=O)OCC1OC(n2c3c(cc(C#N)c2=O)CCCCCC3)C(OC(C)=O)C(OC(C)=O)C1OC(C)=O (centres undefined)
90.3 µM: T-47D breast
not listed: EKVX NSCLC | SK-OV-3 ovarian | SW-620 colon
> 100 µM: all other assays above
